Reference: US11351178B2, “Selective HDAC6 inhibitors” (ITALFARMACO S.P.A., priority 2017, dated 2022)
Like-named read-outs stand apart in the source and are kept apart here.

Key:
[1] = system: regulatory T cell (Treg, CD4+CD25+) suppression activity; assay: T CD4 lymphocyte proliferation mediated by mouse regulatory T cells suppression assay; type: cell-based
Method: To evaluate the ability of the molecules under this patent to increase regulatory T cell (Treg, CD4^+CD25^+) suppression activity a T-cell (responder T cells, Teff) proliferation suppression assay was used. Treg cells at different concentrations were cultured with Teff cells (CD4^+CD25^−) in the presence of proliferative stimuli. T cells need of two stimuli to proliferate: the first given by the recognition of antigen associated with MHC by T cell receptor (TCR) and the second one derived from co-stimulatory molecules such as CD28. In the absence of a specific antigen, TCR activation can take place with an antibody recognizing one of the composing subunits, CD3ε. In this assay, anti-CD3ε monoclonal antibody and CD4 T cell depleted splenocytes were used as activator stimuli. Therefore, the ability to reduce Teff cells proliferation by Tregs in the presence or absence of HDAC6 inhibitors was assessed.
Treg and Teff cells were separated using the Treg isolation kit based on magnetic beads separation technique (Miltenyi Biotec) through an initial negative selection and a final positive selection process.
Single cell suspension was obtained from spleen of C57BL/6 mice using a 70 μm strainer.
Cell suspension was treated with ACK buffer to lyse red blood cells and then centrifuged for 5 minutes at 300×g. After centrifugation, the cells were resuspended in PBS (Phosphate Buffered Saline, Gibco) and counted. Subsequently, splenocytes were resuspended in a buffer consisting of PBS, 0.5% BSA and 2 mM EDTA.
To proceed with the first step of Treg separation, CD4 negative cells were indirectly magnetically labeled with a cocktail of biotin-conjugated antibodies against CD8a, CD11b, CD45R, CD49b, Ter-119 and Anti-Biotin MicroBeads CD4+ cells were thus obtained by negative selection as flow-through of a magnetic MACS column.
Cells bound to microbeads were eluted and conserved for their use as antigen presenting cells (APC) in the proliferation assay.
In the second step of Treg purification, pre-enriched CD4+ cells were labelled with an R-phycoerythrin (PE)-conjugated anti-CD25 antibody that preferentially binds to Treg cells and magnetic beads coupled with an anti PE antibody. The cell suspension was then loaded on a column. The Teff cells pass through the column without binding (negative selection), while beads-bound Treg cells adhere through the magnetic beads (positive selection). Treg cells were then eluted from the column by buffer flow using a plunger. Treg and Teff cell purification is summarized in FIG. 6. • CD4− cells from first positive selection as APC • Treg CD4+ CD25+ as suppressor cells • Teff CD4+ CD25− as responder/proliferating cells
CD4^− cells were treated with mitomycin C (50 μg/ml, Sigma) for 30 min at 37° C. to prevent their proliferation They were then resuspended at a concentration of 4.0×10^5/50 μl in complete medium (RPMI, FBS10%, penicillin/streptomycin 1×, 50 μM beta mercaptoethanol). Teffs were labeled with carboxy fluorescein succinimidyl ester (CFSE) at a concentration of 2 μM in PBS at 37° C., and after 10 minutes incubation, the reaction was blocked with a 10% FBS PBS solution. CFSE labelling allows covalent modification of Teff cell to analyse their proliferation by fluorescence dilution. The labelled Teffs were then centrifuged and resuspended at the final concentration of 5.0×10^4/50 μl in complete medium. Finally, the Tregs obtained by purification were diluted to the final concentration of 5.0×10^4/50 μl in complete medium.
Then a co-culture of Teff (5.0×10^4), T CD4^− (4.0×10^5) was prepared and Treg cells in different ratios (1:1, 1:2, 1:4, 1:8 ratio Teff to Treg cells) were added thereto. The test compounds at different concentrations or DMSO vehicle were added to the cell suspension. Finally, an anti-CD3ε monoclonal antibody (Miltenyi Biotec) was added at a concentration of 1 μg/ml. Cells were plated in flat bottom 96-well plates and each condition was set up in a technical duplicate. […]

[2] = Stability to Phase I metabolism in human S9 liver fraction; type: in vitro ADME
How it was run: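 Phase I stability in human and rat hepatic S9 at 37 °C, sampled up to 90 min. Samples were stopped with acidified acetonitrile on ice, then quantified by HPLC-UV or LC-MS/MS.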

human PBMCs = assay: Mixed Lymphocytes Reaction (MLR) with human PBMCs (IFN-γ, TNF-α, IL-6); type: cell-based; conditions: PBMC, 144 h, two-way MLR, 6 days, 1 μM, negative = induction
Method: In order to study HDAC6 inhibitors ability to inhibit the activation of allogenic T CD4+ cells, a Mixed Lymphocytes Reaction (MLR or mixed lymphocyte culture, CLM) assay was performed. This is a reaction involving blast transformation of in vitro cultured lymphocytes in the presence of allogeneic lymphocytes. There is the so-called “two-way” reaction wherein the two lymphocyte populations stimulate each other to proliferate, and the so-called “one way” reaction, wherein the proliferation of one of the two populations is inhibited by mitomycin C or irradiation, these cells provide proliferation stimulus (stimulator) to the so-called “responder” cells.
Human peripheral blood mononuclear cells (PBMCs) used in MLR were obtained by Ficoll gradient separation from Buffy Coat of healthy donors.
We used a two-way MLR. The cells from the two donors were plated at 1:1 ratio (allogenic stimulation) to the final concentration of 2×10^5 per well in U-bottom 96 well plates in RPMI 1640 medium with 10% FBS and antibiotics. As a control we individually plated the cells from each donor (singenic stimulus). The experiment for each inhibitor was set in deduplicate for allogeneic stimuli and in quintuplicate for singenic stimuli. The cells were cultured for 6 days in an incubator at 37° C.
After 6 days the effect of the test compounds was evaluated by measuring the production of pro-inflammatory cytokines recognized to be characteristics of this assay.
For this purpose, the culture supernatant was harvested and used for IFN-γ, TNF-α and IL-6 inflammatory cytokine assay.
The JAK inhibitor ruxolitinib was used as the active reference compound in the test.
Values in the table indicate the inhibition percentages. Negative values indicate an induction.

[3] = human liver S9 fraction, after 90 min, 37° C.
[4] = read-out: MLR IFN-γ inhibition percentage
[5] = read-out: MLR IL-6 inhibition percentage
[6] = read-out: MLR TNF-α inhibition percentage

Row | SMILES | RS (relative T-reg suppression, AUC drug/AUC control) ([1]; concentration 1 μM) | residual percentage in human S9 fraction [2, 3] [%] | inhibition at 1 µM (human PBMCs; [4]) [%] | inhibition at 1 µM (human PBMCs; [5]) [%] | inhibition at 1 µM (human PBMCs; [6]) [%] | residual percentage in human S9 fraction ([2]; human, 90 min, pH 7.4) [%] | RS (relative T-reg suppression, AUC drug/AUC control) ([1]; concentration 0.5 μM)
1 | O=C(NO)c1cc(F)c(Cn2nnc(-c3ccccn3)n2)c(F)c1 [comp. 6, 3,5-difluoro-N-hydroxy-4-((5-(pyridin-2-yl)-2H-tetrazol-2-yl)methyl)benzamide] | 1.7 | 85.6 | -6.5 | 15.5 | 13.5 |  | 
2 | O=C(NO)c1cc(F)c(Cn2nnnc2-c2ccccn2)c(F)c1 [comp. 13, 3,5-difluoro-N-hydroxy-4-((5-(pyridin-2-yl)-1H-tetrazol-1-yl)methyl)benzamide] | 1.9 |  | -10.9 | 38.3 | 37.2 | 98 | 
3 | O=C(NO)c1cc(F)c(Cn2nnnc2-c2cccs2)c(F)c1 [comp. 15, 3,5-difluoro-N-hydroxy-4-((5-(thiophen-2-yl)-1H-tetrazol-1-yl)methyl)benzamide] | 3.0 |  | 21 | 22.9 | 33.9 | 83 | 
4 | O=C(NO)c1cc(F)c(Cn2nnc(-c3ccco3)n2)c(F)c1 [comp. 19, 3,5-difluoro-4-((5-(furan-2-yl)-2H-tetrazol-2-yl)methyl)-N-hydroxybenzamide] | 2.3 | 94 | -7.85 | 4.62 | 25.9 |  | 
5 | O=C(NO)c1cc(F)c(Cn2nnc(-c3scc4c3OCCO4)n2)c(F)c1 [comp. 79, 4-[[5-(2,3-dihydrothieno[3,4-b][1,4]dioxin-5-yl)tetrazol-2-yl]methyl]-3,5-difluoro-benzenecarbohydroxamic acid] | 1.7 |  | 27.5 | 38.6 | 50.9 |  | 
6 | Cc1cc(-c2nnc(Sc3ccc(C(=O)NO)cc3)n2C)nn1C [comp. 85, 4-[[5-(1,5-dimethylpyrazol-3-yl)-4-methyl-1,2,4-triazol-3-yl]sulfanyl]benzenecarbohydroxamic acid] | 3.8 |  | 51.8 | 66.9 | 73.8 |  | 3.0
